In paper PMC9000592 (Molecules, 2022):
Read-outs that look alike come from different tables or passages of the source.

What was measured:
[1] = cited from earlier work
CYP3A2 [2] = target: T1, CYP3A2 (Rattus norvegicus, UniProt P05183); assay: Inhibition of CYP3A2-mediated dexamethasone 6β-hydroxylation in rat liver microsomes (HPLC); settings: for inhibition mode of CYP3A2 enzyme activity: Lineweaver–Burk plot, rat liver microsomes; for Vmax for 6β-hydroxylase / Clint (hepatic intrinsic clearance) for 6β-hydroxylase: dexamethasone substrate
T1 sequence (P05183 1-504): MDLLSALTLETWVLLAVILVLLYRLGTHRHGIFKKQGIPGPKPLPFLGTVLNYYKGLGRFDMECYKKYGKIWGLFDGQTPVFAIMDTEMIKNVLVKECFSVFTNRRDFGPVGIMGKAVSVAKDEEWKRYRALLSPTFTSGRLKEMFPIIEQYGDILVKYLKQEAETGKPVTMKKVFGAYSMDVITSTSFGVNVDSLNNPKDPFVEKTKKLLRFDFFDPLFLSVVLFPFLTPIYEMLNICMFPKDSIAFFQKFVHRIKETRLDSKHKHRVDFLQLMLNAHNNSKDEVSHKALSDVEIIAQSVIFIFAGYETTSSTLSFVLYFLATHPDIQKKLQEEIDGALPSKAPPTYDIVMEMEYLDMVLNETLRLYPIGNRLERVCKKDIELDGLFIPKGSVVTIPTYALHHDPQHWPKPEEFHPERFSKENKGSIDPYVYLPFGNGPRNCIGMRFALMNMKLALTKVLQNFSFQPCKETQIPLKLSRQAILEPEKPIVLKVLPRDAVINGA
Description: The rates of 6β-hydroxydexamethasone formation were determined using High-Performance Liquid Chromatography (HPLC) technique.
The percentage of organic solvent in the assay was not more than 1% v/v.
The quenched reaction masses were transferred to the new vials and substrate and metabolite were double extracted with ethyl acetate (3 mL) and diethyl ether (3 mL), respectively. The organic extracts were evaporated to dryness. The mobile phase (70% acetonitrile and 30% water, v/v) was used to dissolve the residues. Then, 10 µL of the solution was injected for HPLC analysis.
Analysis of variance (ANOVA) test was also performed (at 0.05 significance level).
Schwarz criterion (SC) and Akaike information criterion (AIC) were acquired from nonlinear regression analysis. IC50 values were calculated by nonlinear regression analysis and GraphPad Prism software was used for this purpose.
The Lineweaver–Burk plot was used to assess the inhibition parameters such as Km, Vmax, and Clint.

trimethadione metabolism = settings: short-term administration in rats; cited from earlier work
cytokine expression = tested on: cytokine expression; parameters: method as in PMID 31286365; settings: in vitro; cited from earlier work
[3] = target: fatty acid amide hydrolase; settings: hydrolysis of arachidonoylethanolamide; cited from earlier work
CYP3A4 = settings: cited from earlier work
CYP3A2 [4] = target: T1, CYP3A2; parameters: The pooled liver microsomes from male rats (Sprague Dawley) were purchased from Merck; tissue Merck; host or cells: pooled liver microsomes from male Sprague Dawley rats; settings: previous study; cited from earlier work
COVID-19 = tested on: COVID-19; parameters: method as in PMID 33732750; settings: cited from earlier work
[5] = parameters: method as in PMID 29752643; settings: several daily oral doses of omeprazole 40 mg; cited from earlier work
ATPase = tested on: ATPase; parameters: method as in PMID 2992525; settings: in vitro, up to 60 min at pH 6.1 or pH 7.4; cited from earlier work
[6] = tested on: bufuralol 1′-hydroxylation; parameters: method as in PMID 15258107; settings: cited from earlier work
[7] = male, Sprague Dawley, rat, microsomes, pH 7.4

SMILES | inhibition mode of CYP3A2 enzyme activity (CYP3A2 [2]) | Vmax for 6β-hydroxylase (CYP3A2 [2]; inhibitor 50 µM) | Vmax for 6β-hydroxylase (CYP3A2 [2]; inhibitor 100 µM) | IC50 (CYP3A2 [2]) [µM] | Ki (CYP3A2 [2]) [µM] | inhibition of CYP3A2 at concentrations lower than 30 µM (CYP3A2 [2]) | Clint (hepatic intrinsic clearance) for 6β-hydroxylase (CYP3A2 [2]; inhibitor 30 µM) | Vmax for 6β-hydroxylase (CYP3A2 [2]; inhibitor 30 µM) | Clint (hepatic intrinsic clearance) for 6β-hydroxylase (CYP3A2 [2]; inhibitor 50 µM) | Clint (hepatic intrinsic clearance) for 6β-hydroxylase (CYP3A2 [2]; inhibitor 100 µM) | also measured
CC(C)Cc1ccc(C(C)C(=O)O)cc1 (stereo not drawn) [Ibuprofen, ibuprofen] | non-competitive | 0.0116 ± 0.608 × 10^−3 µM^−1∙min^−1 | 0.0099 ± 0.040 × 10^−3 µM^−1∙min^−1 | – | – | – | – | – | – | – | amounts found in plasma [1]: 49 to 242 µM; Cmax ([1]; read-out: peak plasma concentrations (Cmax), after two single doses of 200 mg from two different ibuprofen preparations): 110 to 150 µM; Vmax for 6β-hydroxylase (CYP3A2 [2]; inhibitor 200 µM): 0.0092 ± 0.100 × 10^−3 µM^−1∙min^−1; inhibition at 40 min, 50 µM (CYP3A2 [2]; [7]): 23 ± 4.34%; inhibition at 40 min, 100 µM (CYP3A2 [2]; [7]): 34.73 ± 0.336%; inhibition at 40 min, 200 µM (CYP3A2 [2]; [7]): 38.9 ± 0.476%; effect on trimethadione metabolism (trimethadione metabolism): did not affect; effect on cytokine expression (cytokine expression): no inhibitory effect; IC50 [3]: 270 µM
CCC(CC)COC(=O)[C@H](C)N[P@](=O)(OC[C@H]1O[C@@](C#N)(c2ccc3c(N)ncnn23)[C@H](O)[C@@H]1O)Oc1ccccc1 [Remdesivir, remdesivir] | mixed | 0.0146 ± 0.586 × 10^−3 µM^−1∙min^−1 | 0.0132 ± 0.153 × 10^−3 µM^−1∙min^−1 | 45.007 ± 0.016 | 22.504 ± 0.008 | No inhibition | 0.0006 ± 0.011 × 10^−3 µM^−2∙min^−1 | 0.0122 ± 0.306 × 10^−3 µM^−1∙min^−1 | 0.0006 ± 0.018 × 10^−3 µM^−2∙min^−1 | 0.0010 ± 0.025 × 10^−3 µM^−2∙min^−1 | plasma concentration range ([1]; after a single dose of 3–225 mg): 0.1 to 7.3 µM; inhibition of CYP3A4 (CYP3A4): weak inhibitor
CC(=O)Oc1ccccc1C(=O)O [aspirin] | – | – | – | – | – | – | – | – | – | – | inhibition of CYP3A2 isoenzyme activity (CYP3A2 [4]): weak competitive inhibition
C[C@@H]1C[C@H]2[C@@H]3CCC4=CC(=O)C=C[C@]4(C)[C@@]3(F)[C@@H](O)C[C@]2(C)[C@@]1(O)C(=O)CO [dexamethasone] | – | – | – | – | – | – | – | – | – | – | reduction of death rate (COVID-19; nonventilated patients with supplemental oxygen): 20%; reduction of death rate (COVID-19; ventilated intensive care unit (ICU) patients): 35%
COc1ccc2[nH]c([S+]([O-])Cc3ncc(C)c(OC)c3C)nc2c1 (stereo not drawn) [Omeprazole, omeprazole] | uncompetitive | 0.0062 ± 0.473 × 10^−3 µM^−1∙min^−1 | 0.0042 ± 0.058 × 10^−3 µM^−1∙min^−1 | 78.35 ± 0.46 | 39.18 ± 0.23 | No inhibition | 0.0009 ± 0.091 × 10^−3 µM^−2∙min^−1 | 0.0080 ± 0.346 × 10^−3 µM^−1∙min^−1 | 0.0010 ± 0.093 × 10^−3 µM^−2∙min^−1 | 0.0011 ± 0.066 × 10^−3 µM^−2∙min^−1 | effect on the pharmacokinetics of roxadustat [5]: no substantial effect; therapeutic plasma concentration ([1]; no reference given): 1.1 to 2.0 µM; Cmax ([1]; several daily oral doses of 40 mg): 1207 ng/mL; inhibition of the ATPase activity (ATPase): no substantial inhibition; IC50 [6]: > 200 µM
